Values quoted from earlier work as cited in patent US20140030313A1, “TREATMENT OF MENSTRUAL PAIN AND EXCESSIVE MENSTRUAL BLOOD LOSS BY INTRAVAGINAL ADMINISTRATION OF A LOW DOSE OF ANTIFIBRINOLYTIC OR HEMOSTATIC AGENT IN COMBINATION WITH NON-STEROIDAL ANTI-INFLAMMATORY DRUG” (ARSTAT Inc., priority 2011, published 2014).

Legend:
[1] = intravaginal tampon at 20% of the oral dose, vs oral capsules
[2] = oral, 6 g/day
[3] = not given; remark: listed apart in the source
[4] = not given; remark: listed apart in the source

Compound: NC[C@H]1CC[C@H](C(=O)O)CC1 [Lysteda]
- subjects returned to normal MBL after treatment (mean on-treatment MBL of less than 80 mL) (Lysteda NDA medical review): 44%
- MBL reduction targets established by the FDA (oral, 3900 mg/day regimen): meets MBL reduction targets established by the FDA

Compound: Cc1cccc(Nc2ccccc2C(=O)O)c1C [mefenamic acid]
- pain relief [1]: pain relief equivalent to that achieved with the oral capsules

Compound: NC[C@H]1CC[C@H](C(=O)O)CC1 [tranexamic acid]
- risk of gastrointestinal adverse events [2]: increased
- incidence of postoperative bleeding complications ([3]; mouthwash, compared to placebo): reduce the incidence of postoperative bleeding complications
- plasma concentrations ([4]; after a mouth rinse): below 2 mcg/mL
- saliva concentrations, maximum level ([4]; after a mouth rinse): above 200 mcg/mL
- time saliva concentration remained at a therapeutic level ([4]; after a mouth rinse): more than two hours
- drug in saliva samples ([4]; after an oral tablet): not detected
- mean drug plasma concentrations ([4]; after an oral tablet): 7000 ng/mL
- difference to placebo in reduction of large stains, small and large clots and changes in serum ferritin levels (tranexamic acid vs placebo treatment): no statistically significant differences

Compound: aprotinin
- plasma drug levels ([3]; locally administered): without detectable plasma drug levels
- postoperative blood loss ([3]; locally administered): Reduction of the postoperative blood loss
